Drawing on PubChem BioAssay AID434951 (Broad Institute, 2010), this text covers EC50 for 35 compounds.

Active and inactive are the calls of the source.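 The calls were made as follows: active = a fitted half-maximal concentration EC50 for the rise in nuclear signal no higher than ten times the top dose tested; inconclusive = flat fit with activity between 30% and 70%, or unusable fit; inactive = EC50 beyond ten times the top dose.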

Sequence of Hypoxia-inducible factor 1-alpha (Homo sapiens) (Q16665 whole entry, looked up): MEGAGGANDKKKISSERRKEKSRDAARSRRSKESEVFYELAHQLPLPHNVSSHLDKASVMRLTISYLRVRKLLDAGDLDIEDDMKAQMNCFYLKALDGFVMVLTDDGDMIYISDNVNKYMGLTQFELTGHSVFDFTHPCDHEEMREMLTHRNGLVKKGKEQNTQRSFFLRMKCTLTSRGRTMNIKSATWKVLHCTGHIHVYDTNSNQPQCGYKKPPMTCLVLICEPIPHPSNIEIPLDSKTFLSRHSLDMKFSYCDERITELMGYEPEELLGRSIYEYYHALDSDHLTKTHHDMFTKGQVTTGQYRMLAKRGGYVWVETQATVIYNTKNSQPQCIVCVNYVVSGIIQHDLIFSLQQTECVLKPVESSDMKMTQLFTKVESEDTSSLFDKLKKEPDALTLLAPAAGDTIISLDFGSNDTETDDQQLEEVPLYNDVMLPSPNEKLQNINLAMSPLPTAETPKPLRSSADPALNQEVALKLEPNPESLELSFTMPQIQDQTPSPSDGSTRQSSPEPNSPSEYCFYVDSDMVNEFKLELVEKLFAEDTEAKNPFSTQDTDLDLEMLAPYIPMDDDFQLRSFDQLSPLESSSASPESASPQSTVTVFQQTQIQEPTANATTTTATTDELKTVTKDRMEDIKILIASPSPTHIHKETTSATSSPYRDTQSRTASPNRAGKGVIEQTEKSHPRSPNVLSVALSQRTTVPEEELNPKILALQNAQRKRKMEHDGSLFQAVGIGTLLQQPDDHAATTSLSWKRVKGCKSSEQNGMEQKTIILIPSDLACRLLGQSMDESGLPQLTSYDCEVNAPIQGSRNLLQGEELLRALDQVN

The experiment concerns the target Hypoxia-inducible factor 1-alpha (Homo sapiens) (UniProt Q16665). Description: HIF pathway activation, GFP-HIF1alpha translocation – imaging, fluorescence, U2OS GFP-HIF1alpha, confirmation (AID 434951). To be noted: U2OS GFP-HIF1alpha nuclear intensity, high-content imaging.
As for `CN(Cc1cccc(C(F)(F)F)c1)C(=O)C1CCC(=O)N(CC2CCCCC2)C1` (stereo not given), the EC50 (usually the concentration that produces a half-maximal response) was > 35 µM (inactive).

As for `CCN(CC)c1ccc(/C=N/NC(=O)c2nnn(-c3nonc3N)c2C(C)C)c(O)c1`, the concentration giving a half-maximal response (EC50) is 3.55 µM.

Regarding `CCOC(=O)/C(N=Nc1ccc(F)cc1)=C(/O)c1ccc([N+](=O)[O-])cc1`, the EC50 is > 35 µM (inactive).

As to `COc1ccc2[nH]c(C(=O)N/N=C/c3ccccc3OC)cc2c1`, the EC50 was > 35 µM (inactive).

As for `CCOC(=O)C1=C(C)NC(C)=C(C(=O)OCC)C1C(=O)OCC(=O)N(C)C1CCS(=O)(=O)C1` (stereo not given), the EC50 is > 35 µM (inactive).

On to `COc1ccc(CSCC(=O)Nc2ccc(S(=O)(=O)N3CCCCCC3)cc2)cc1`, for which the EC50 is > 35 µM (inactive).

As for `CC(OC(=O)c1ncc(Cl)c(Cl)c1Cl)C(=O)NC1(C#N)CCCCC1` (stereo not given), the EC50 was 17.4 µM.

For `Cc1ccccc1-n1c(=O)n(Cc2ccc(C(=O)O)cc2)c(=O)c2[nH]cnc21`, the EC50 is > 35 µM (inactive).

Turning to `CCCCNc1nc(N)nc(-c2cc(Cl)ccc2O)n1`, the EC50 is > 35 µM (inactive).

`Cc1ccc(Nc2nnc(-c3ccccc3N)o2)cc1C`: the EC50 was > 35 µM (inactive).

With `CCN(CCCNC(=O)CCc1nc(-c2ccc(OC)cc2)no1)c1cccc(C)c1`, the EC50 is > 35 µM (inactive).

For `COc1ccccc1NC(=O)CN(C)S(=O)(=O)c1cccc2cccnc12`, the EC50 is > 35 µM (inactive).

As for `COc1ccccc1N=Nc1ccc(O)c2ncccc12`, the EC50 was 7.58 µM.

On to `C[C@@H]1O[C@@H](OC[C@H]2O[C@@H](Oc3c(-c4ccc(O)cc4)oc4cc(O)cc(O)c4c3=O)[C@H](O)[C@@H](O)[C@@H]2O)[C@H](O)[C@H](O)[C@H]1O`, for which the EC50 was > 35 µM (inactive).

Turning to `C/C(=N\Nc1nc2ccccc2[nH]1)c1ccccn1`, the EC50 is 1.8 µM.

Turning to `O=C(N/N=C\c1c(O)ccc2ccccc12)c1cncc(Br)c1`, the EC50 was 6.48 µM.

In the case of `COc1ccc(CCNC(=O)c2cc(-c3ccco3)on2)cc1OC`, the EC50 was 10.8 µM.

For the compound `O=C(NNC(=O)C(O)(c1ccccc1)c1ccccc1)C1CC1`, the EC50 is > 35 µM (inactive).

Regarding `COc1ccc(NC(=O)Nc2ccc(CC(=O)O)cc2)cc1`, the EC50 is > 35 µM (inactive).

Regarding `CCC(=O)n1nc(NCc2ccc(OC)c(OC)c2)nc1NCc1ccc(OC)c(OC)c1`, the EC50 was > 35 µM (inactive).

For `c1ccc2c(NCCc3c[nH]c4ccccc34)c3ccccc3nc2c1`, the EC50 is > 35 µM (inactive).

As to `COc1ccc(C2NC(=S)NC3=C2CCCC3=C2SCCS2)cc1` (stereo not given), the EC50 is 17.8 µM.

On to `COC(=O)C(NC(=O)c1c(C)nn(C)c1Cl)c1ccccc1` (stereo not given), for which the EC50 was > 35 µM (inactive).

On to `COc1ccc(/C(C)=N/NC(=O)c2cccc(S(=O)(=O)N3CCCC3)c2)c(O)c1`, for which the EC50 was 5.8 µM.

On to `CCCc1[nH]nc2c1C(c1ccoc1)C(C#N)=C(N)O2` (stereo not given), for which the EC50 was > 35 µM (inactive).

For the compound `O=C1NC(=O)/C(=C/c2ccc(OS(=O)(=O)c3ccc(F)cc3F)cc2)N1`, the EC50 was > 35 µM (inactive).

Consider `O=c1cc(CO)[nH]cc1OCc1ccccc1`, for which the EC50 was > 35 µM (inactive).

`COc1ccc(C(NC(=O)c2cccnc2)c2cc(Cl)c3cccnc3c2O)cc1OC` (stereo not given): the EC50 is 7.09 µM.

As for `O=C(Nc1nc2ccc([N+](=O)[O-])cc2s1)c1c(F)cccc1F`, the EC50 was > 35 µM (inactive).

As to `Cc1ccc(OC(C)C(=O)N2CC(=O)Nc3ccccc32)cc1` (stereo not given), the EC50 was > 35 µM (inactive).

For `CCn1nc(C(=O)OCC(=O)NC(C)C)c2ccccc2c1=O`, the EC50 is > 35 µM (inactive).

On to `CCCC(C)NC(=O)CN1C(=O)NC2(CCc3ccccc32)C1=O` (stereo not given), for which the EC50 is > 35 µM (inactive).

For `COc1ccc2oc(=O)c(C(=O)NC3CCCCCC3)cc2c1`, the EC50 was > 35 µM (inactive).

On to `CCCCn1c(=O)[nH]c(=O)c2c(C(=O)OCC)cc(-c3cccs3)nc21`, for which the EC50 was > 35 µM (inactive).

`COc1ccccc1C(=O)Oc1ccccc1C(=O)Nc1ccccc1`: the EC50 is > 35 µM (inactive).
